Data taken from US20250352615A1, “COMPOSITIONS AND METHODS FOR THE MODULATION OF PIEZO1 AND TRPV4” (Duke University, priority 2021, published 2025).

What was measured:
Format in all cases: cell-based
TRPV4 = molecular target: T1, TRPV4 (Mus musculus, UniProt Q9EPK8); assay: Calcium imaging of TRPV4-mediated [Ca2+]i in mouse PSCs; settings: Yoda1 25 μM
T1 construct: endogenous in cells; host or cells: freshly isolated mouse pancreatic acini (C57BL/6J WT)
Description: (§1) Mouse and human PSCs were isolated using collagenase digestion. Modified Krebs Henseleit Buffer (KHB) solution (100 mL) was prepared as previously described by Romac et al., Nat. Commun. 9(1):1715 (2018). Pancreatic tissue was digested with 2 mg of collagenase NB 8 (SERVA, catalog 17456) dissolved in 10 mL of modified KHB solution containing 1 mg soybean trypsin inhibitor (SBTI 1-S; Millipore Sigma, catalog T9003) and 20 mg BSA (Thermo Fisher Scientific; BP1600-100). Digestion solution (5 mL) was used to inflate the pancreas. Pancreas with 5 mL of digestion solution was incubated in a shaking water bath for 10 minutes at 37° C. The solution was then discarded. The pancreas tissue was cut into small pieces and digested with fresh 5 mL digestion buffer. Tissue was incubated in a shaking water bath for 40 minutes at 37° C. The cells were then separated from tissue by pipetting up-down with a 10 mL pipette and passed sequentially through a 70 μm and a 40 μm cell strainer. The filtrate was centrifuged at 150×g for 3 minutes at room temperature. The cells were washed with 10 mL Leibovitz's media (Thermo Fisher Scientific, catalog 11415-064), passed through a 20 μm filter, and centrifuged at 80×g for 3 minutes at room temperature. The supernate was removed, and isolated stellate cells were plated on a thin-layered Matrigel-coated glass bottom culture plate (MatTek, P35G-0-14-C). Before plating the cells, Matrigel solution (Corning, catalog 354234) at a ratio of 1.5:100 DMEM/F12 (Thermo Fisher Scientific, catalog 11330-032) was poured onto the culture plate and incubated for 2 hr at 37° C. to form a thin layer of Matrigel coating. Matrigel mixture was removed, and the plate was washed with PBS before cells were plated. Cell culture media, DMEM/F12 with 5% FBS was used for mouse stellate cells. Fresh, human pancreatic tissue was digested with collagenase as described above with modifications. […] The cell viability following Yoda1 treatment was analyzed using the Live/Dead cell imaging kit (Thermo Fisher Scientific, catalog R37601). […]

mouse PSCs = assay: Mouse PSC activation and fibrogenic response; settings: Yoda1 25 μM
Description: as §1

human PSCs = assay: Human PSC activation and fibrogenic response (fat droplets, cell shape, ECM mRNA and immunostaining)
Description: (§2) Mouse and human PSCs were isolated using collagenase digestion. Modified Krebs Henseleit Buffer (KHB) solution (100 mL) was prepared as previously described by Romac et al., Nat. Commun. 9(1):1715 (2018). Pancreatic tissue was digested with 2 mg of collagenase NB 8 (SERVA, catalog 17456) dissolved in 10 mL of modified KHB solution containing 1 mg soybean trypsin inhibitor (SBTI 1-S; Millipore Sigma, catalog T9003) and 20 mg BSA (Thermo Fisher Scientific; BP1600-100). Digestion solution (5 mL) was used to inflate the pancreas. Pancreas with 5 mL of digestion solution was incubated in a shaking water bath for 10 minutes at 37° C. The solution was then discarded. The pancreas tissue was cut into small pieces and digested with fresh 5 mL digestion buffer. Tissue was incubated in a shaking water bath for 40 minutes at 37° C. The cells were then separated from tissue by pipetting up-down with a 10 mL pipette and passed sequentially through a 70 μm and a 40 μm cell strainer. The filtrate was centrifuged at 150×g for 3 minutes at room temperature. The cells were washed with 10 mL Leibovitz's media (Thermo Fisher Scientific, catalog 11415-064), passed through a 20 μm filter, and centrifuged at 80×g for 3 minutes at room temperature. The supernate was removed, and isolated stellate cells were plated on a thin-layered Matrigel-coated glass bottom culture plate (MatTek, P35G-0-14-C). Before plating the cells, Matrigel solution (Corning, catalog 354234) at a ratio of 1.5:100 DMEM/F12 (Thermo Fisher Scientific, catalog 11330-032) was poured onto the culture plate and incubated for 2 hr at 37° C. to form a thin layer of Matrigel coating. Matrigel mixture was removed, and the plate was washed with PBS before cells were plated. Cell culture media, DMEM/F12 with 5% FBS was used for mouse stellate cells. Fresh, human pancreatic tissue was digested with collagenase as described above with modifications. Collagenase (2.5 mg) in 10 mL of modified KHB solution was used for digestion. The digested tissues were filtered through a 100 μm cell strainer. The cells were cultured with DMEM/F12 with 10% FBS in a Matrigel-coated plate. After 24 hr, the cell media was replaced with fresh media to remove unattached and dead cells. After 2 days, cells were immunostained for GFAP and used for experiments. Perinuclear fat droplets were stained with BODIPY 493/503 (4,4-Difluoro-1,3,5,7,8-Pentamethyl-4-Bora-3a,4a-Diaza-s-Indacene; Invitrogen, catalog D3922) to confirm stellate cell quiescence. The cell viability following Yoda1 treatment was analyzed using the Live/Dead cell imaging kit (Thermo Fisher Scientific, catalog R37601). RNAs were isolated using the RiboPure Kit (Invitrogen, catalog AM1924) according to manufacturer's instructions.
(§3) Fluid shear stress and mechanical pushing applied to stellate cells were achieved as previously described by Wang et al., J. Clin. Invest. 126(12): 4527-4536 (2016). Parallel-plate fluid flow chambers (μ-Slide I 0.4 Luer, or μ-Slide I 0.2 Luer from Ibidi) were used for fluid shear stress experiments. The fluid shear stress (T) was calculated using the formula: τ=η×[…] φ for μ-Slide I 0.4 Luer and τ=η×330.4 φ for μ-Slide I 0.2 Luer, where r represents viscosity of the medium and φ represents flow rate (according to the manufacturer's instructions, Ibidi). Mechanical pushing was achieved by applying a blunt borosilicate glass pipette once to the cell membrane with a deflection of 2-3 μm for 1 second using a micromanipulator (World Precision Instruments).
Mouse and human PSCs were washed with PBS (pH 7.4) and fixed with 4% paraformaldehyde for 10 minutes at room temperature. The fixed cells were treated with 0.1% Triton X-100. […]

Piezo1 = molecular target: T2, Piezo1 (Mus musculus, UniProt E2JF22); assay: Calcium imaging of Piezo1-mediated [Ca2+]i in mouse PSCs
T2 construct: endogenous in cells; host or cells: freshly isolated mouse pancreatic acini (WT = Piezo1 fl/fl on a C57BL/6J background)
Description: as §2, §3
Calcium 6-QF (Molecular Devices) dye was used for live-cell calcium imaging as described by Romac et al., Nat. Commun. 9(1):1715 (2018). Cells were imaged in HBSS buffer with 2 mM Ca^2+. Faintly and highly fluorescent loaded cells were excluded from analysis. […]

PSCs = assay: PSC viability (Live/Dead Cell Imaging Kit); settings: Yoda1 25 μM for 2 hr
Description: as §1, with “temperature.” for “temperature. The supernate was removed, and isolated stellate cells were plated on a thin-layered Matrigel-coated glass bottom culture plate (MatTek, P35G-0-14-C). Before plating the cells, Matrigel solution (Corning, catalog 354234) at a ratio of 1.5:100 DMEM/F12 (Thermo Fisher Scientific, catalog 11330-032) was poured onto the culture plate and incubated for 2 hr at 37° C. to form a thin layer of Matrigel coating. Matrigel mixture was removed, and the plate was washed with PBS before cells were plated. Cell culture media, DMEM/F12 with 5% FBS was used for mouse stellate cells. Fresh, human pancreatic tissue was digested with collagenase as described above with modifications.”

T2 sequence (E2JF22 whole entry): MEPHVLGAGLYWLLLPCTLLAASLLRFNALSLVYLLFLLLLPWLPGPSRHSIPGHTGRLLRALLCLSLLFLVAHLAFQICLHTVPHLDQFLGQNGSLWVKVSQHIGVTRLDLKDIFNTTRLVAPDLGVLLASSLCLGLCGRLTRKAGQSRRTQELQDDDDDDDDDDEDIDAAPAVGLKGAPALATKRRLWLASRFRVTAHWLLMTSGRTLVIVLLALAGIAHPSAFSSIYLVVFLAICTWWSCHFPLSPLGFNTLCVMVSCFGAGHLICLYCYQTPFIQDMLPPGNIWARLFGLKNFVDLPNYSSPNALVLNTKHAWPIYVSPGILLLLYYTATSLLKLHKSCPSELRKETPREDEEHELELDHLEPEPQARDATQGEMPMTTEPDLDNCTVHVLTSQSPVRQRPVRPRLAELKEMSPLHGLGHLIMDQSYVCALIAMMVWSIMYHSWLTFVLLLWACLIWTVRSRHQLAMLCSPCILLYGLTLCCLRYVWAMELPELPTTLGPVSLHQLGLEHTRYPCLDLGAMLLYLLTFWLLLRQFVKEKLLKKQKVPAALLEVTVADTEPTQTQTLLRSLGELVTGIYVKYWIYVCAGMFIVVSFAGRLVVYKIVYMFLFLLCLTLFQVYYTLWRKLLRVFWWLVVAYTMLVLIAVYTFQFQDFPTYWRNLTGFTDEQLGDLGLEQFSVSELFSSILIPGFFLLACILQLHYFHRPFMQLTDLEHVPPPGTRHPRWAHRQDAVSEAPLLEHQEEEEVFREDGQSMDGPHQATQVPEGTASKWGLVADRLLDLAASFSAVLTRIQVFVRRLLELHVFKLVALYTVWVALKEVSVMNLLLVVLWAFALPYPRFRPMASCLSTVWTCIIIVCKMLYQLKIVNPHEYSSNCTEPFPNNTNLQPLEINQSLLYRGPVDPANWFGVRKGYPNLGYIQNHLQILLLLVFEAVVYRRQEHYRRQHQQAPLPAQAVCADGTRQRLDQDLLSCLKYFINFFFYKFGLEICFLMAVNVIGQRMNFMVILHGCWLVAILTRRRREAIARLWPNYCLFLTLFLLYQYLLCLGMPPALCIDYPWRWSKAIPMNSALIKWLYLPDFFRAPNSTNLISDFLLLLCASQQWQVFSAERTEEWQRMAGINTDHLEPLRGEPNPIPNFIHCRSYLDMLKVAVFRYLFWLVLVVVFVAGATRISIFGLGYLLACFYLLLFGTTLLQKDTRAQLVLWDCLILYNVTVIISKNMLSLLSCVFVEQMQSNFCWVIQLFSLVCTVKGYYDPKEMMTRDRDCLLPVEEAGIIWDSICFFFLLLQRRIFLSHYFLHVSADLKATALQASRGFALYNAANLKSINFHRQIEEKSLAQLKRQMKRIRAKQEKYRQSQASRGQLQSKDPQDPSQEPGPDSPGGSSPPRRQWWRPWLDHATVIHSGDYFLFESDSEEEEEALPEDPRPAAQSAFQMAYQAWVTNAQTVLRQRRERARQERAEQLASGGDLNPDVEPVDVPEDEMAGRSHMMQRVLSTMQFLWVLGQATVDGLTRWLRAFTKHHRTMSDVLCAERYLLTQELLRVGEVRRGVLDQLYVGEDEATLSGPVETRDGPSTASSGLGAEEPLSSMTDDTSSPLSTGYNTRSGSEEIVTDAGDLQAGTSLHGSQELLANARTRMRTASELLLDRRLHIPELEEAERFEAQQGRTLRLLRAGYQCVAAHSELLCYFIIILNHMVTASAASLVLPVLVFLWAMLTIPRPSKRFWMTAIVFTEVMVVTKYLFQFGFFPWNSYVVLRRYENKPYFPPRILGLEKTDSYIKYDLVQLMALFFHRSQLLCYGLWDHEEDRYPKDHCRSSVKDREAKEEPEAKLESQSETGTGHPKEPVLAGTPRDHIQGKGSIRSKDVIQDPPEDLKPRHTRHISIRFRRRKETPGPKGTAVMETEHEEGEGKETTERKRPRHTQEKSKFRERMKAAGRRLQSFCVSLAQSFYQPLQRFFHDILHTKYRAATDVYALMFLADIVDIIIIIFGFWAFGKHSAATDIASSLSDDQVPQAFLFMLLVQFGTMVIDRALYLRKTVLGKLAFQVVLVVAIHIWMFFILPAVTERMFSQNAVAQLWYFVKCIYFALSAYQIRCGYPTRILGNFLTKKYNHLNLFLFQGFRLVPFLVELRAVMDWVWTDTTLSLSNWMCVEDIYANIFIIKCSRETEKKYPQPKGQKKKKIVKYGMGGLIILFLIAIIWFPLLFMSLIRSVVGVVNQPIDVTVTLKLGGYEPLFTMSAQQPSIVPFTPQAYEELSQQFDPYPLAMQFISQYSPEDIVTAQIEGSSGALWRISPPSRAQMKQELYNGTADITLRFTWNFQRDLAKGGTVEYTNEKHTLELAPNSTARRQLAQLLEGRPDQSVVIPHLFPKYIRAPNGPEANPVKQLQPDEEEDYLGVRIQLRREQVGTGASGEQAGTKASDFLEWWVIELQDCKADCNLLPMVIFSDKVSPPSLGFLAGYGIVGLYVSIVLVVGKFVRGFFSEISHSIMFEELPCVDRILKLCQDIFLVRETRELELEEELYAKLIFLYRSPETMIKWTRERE
T1 sequence (Q9EPK8 whole entry): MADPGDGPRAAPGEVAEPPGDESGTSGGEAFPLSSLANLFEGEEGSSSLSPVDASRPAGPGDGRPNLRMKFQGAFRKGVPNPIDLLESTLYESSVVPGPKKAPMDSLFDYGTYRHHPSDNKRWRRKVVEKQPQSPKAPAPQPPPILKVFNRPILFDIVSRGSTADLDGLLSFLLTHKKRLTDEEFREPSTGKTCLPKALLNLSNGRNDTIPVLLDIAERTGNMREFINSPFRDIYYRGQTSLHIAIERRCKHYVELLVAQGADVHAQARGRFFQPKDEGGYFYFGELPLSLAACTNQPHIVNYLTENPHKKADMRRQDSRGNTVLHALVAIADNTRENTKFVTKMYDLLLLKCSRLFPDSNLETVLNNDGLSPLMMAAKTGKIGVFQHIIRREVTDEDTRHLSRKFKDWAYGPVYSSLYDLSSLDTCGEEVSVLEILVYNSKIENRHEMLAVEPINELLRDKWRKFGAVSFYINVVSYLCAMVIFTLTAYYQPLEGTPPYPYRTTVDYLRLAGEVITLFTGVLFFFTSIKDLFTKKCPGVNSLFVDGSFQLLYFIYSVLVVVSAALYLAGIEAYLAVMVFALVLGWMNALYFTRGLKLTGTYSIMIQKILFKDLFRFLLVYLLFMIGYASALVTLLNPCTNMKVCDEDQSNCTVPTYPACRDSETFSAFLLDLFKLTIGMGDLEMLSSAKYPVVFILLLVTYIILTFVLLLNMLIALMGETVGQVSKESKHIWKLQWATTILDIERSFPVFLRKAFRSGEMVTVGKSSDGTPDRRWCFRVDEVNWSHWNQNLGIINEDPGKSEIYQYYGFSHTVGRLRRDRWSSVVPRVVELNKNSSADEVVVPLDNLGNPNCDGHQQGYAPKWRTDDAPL

**Q.** Clc1cccc(Cl)c1CSc1nnc(-c2cnccn2)s1 [Yoda1] was tested. Which “[Ca2+]i response in TRPV4-null PSCs” value (TRPV4) did it give?
**A.** The value was “caused only transient calcium elevations in TRPV4-null PSCs”.

**Q.** And the “activation of PSCs from TRPV4-KO mice (cell shape, perinuclear fat droplets, ECM protein expression)” value (mouse PSCs)?
**A.** The value was “did not activate PSCs from TRPV4-KO mice”.

**Q.** And the “effects of Yoda1 on fibrosis in Piezo1-deleted PSCs” value (mouse PSCs; Piezo1GFAP-KO PSCs)?
**A.** Its value is “prevented in Piezo1-deleted PSCs”.

**Q.** And the PSC activation phenotype (mouse PSCs; WT mouse PSCs)?
**A.** Its PSC activation phenotype is “converted mouse PSCs to an activated phenotype with reduced perinuclear fat droplets, changes in cell shape, and increased fibronectin and collagen type I”.

**Q.** What about the “Fibronectin, collagen type I, and Piezo1 mRNA levels” value (human PSCs; Yoda1 25 μM, 24 hr) of the same compound?
**A.** Its value is “significantly elevated”.

**Q.** And the TGF-β1 gene expression (human PSCs; Yoda1 25 μM, 24 hr)?
**A.** The TGF-β1 gene expression was “stimulation of profibrotic TGF-β1”.

**Q.** What about the “mean cell area and maximum diameter (mean Feret's diameter-max)” value (human PSCs; Yoda1 25 μM, 24 hr) of the same compound?
**A.** Its value is “significant increase in mean cell area and maximum diameter”.

**Q.** And the “PSCs that had lost their perinuclear fat droplets” value (human PSCs; Yoda1 25 μM, within 24 hours)?
**A.** The value was about 80%.

**Q.** And the “fibronectin and collagen type I immunostaining” value (human PSCs; after 4 days of Yoda1 25 μM)?
**A.** Its value is “abundant”.

**Q.** What about the “Yoda1-stimulated [Ca2+]i increase in Piezo1-deleted PSCs” value (Piezo1; Yoda1 25 μM, Piezo1GFAP-KO) of the same compound?
**A.** The value was “absent in Piezo1-deleted PSCs”.

**Q.** And the “[Ca2+]i response to Yoda1” value (Piezo1; mouse PSCs)?
**A.** Its value is “dose-dependent increases in [Ca^2+]i elevation”.

**Q.** What about the “PSC viability and membrane integrity” value (PSCs) of the same compound?
**A.** Its value is “did not affect PSC viability and membrane integrity”.
